Experimental data from patent US6495525B1, “VLA-4 inhibitor: oMePUPA-V” (Biogen, Inc., priority 1998, dated 2002).
“Also recorded” adds a separate entry of the source.

Assays:
VLA-5 = molecular target: T1, VLA-5 (Homo sapiens, UniProt P05556+P08648); assay: Adhesion of K562 cells to Fn-120 (VLA-5 / α5β1-FN adhesion); assay type: cell-based
T1 construct: endogenous in cells; host or cells: K562 cells
Protocol: Untreated 96 well polystyrene flat bottom plates were coated with 5 μg/ml Fn-120 overnight at 4° C. The plates were washed twice with phosphate buffered saline (PBS) and blocked with 1% Bovine Serum Albumin (BSA) for 1 hour at room temperature. The plates were washed twice with TBS buffer containing 1 mM MnCl2 (assay buffer). K562 cells were labeled with 2 μM of the fluorescent dye, BCECF-AM (see section 4.1.3), and bound to the plate for 30 minutes at room temperature. The plates were inverted and washed three times and adherent cells were quantitated in a Cytofluor fluorescent platereader using an excitation wavelength of 485 nm and an emission wavelength of 530

[1] = tested on: sRBC-induced DTH model in mice; assay: sRBC-induced delayed type hypersensitivity, footpad swelling; assay type: in vivo; details: 20 mg/kg enterally
Protocol: Specific pathogen-free female Balb/c mice, aged 8-10 weeks, from Jackson Labs were used for all experiments. The animals were fed food and water ad libitum. Sheep red blood cells (sRBC) in Alsever's solution from the same sheep were obtained weekly from Charles River Pharm. Services (Southbridge, Mass.). The sRBC were pelleted by centrifugation at 1000 g for 10 minutes at 4° C. and any visible buffy coat removed. The cells were then washed in saline. The cell pellet was resuspended in saline and counted using a hemocytometer. The cells were diluted in phosphate buffered saline (PBS) to 2×10^8 sRBC per mL. On Day 0, mice were sensitized by a s.c. injection of 2×10^7 sRBC in 100 μL PBS. On Day 5, sRBC were prepared as above, but diluted in PBS to a final concentration of 4×10^9 sRBC per ml. Of this preparation, 25 μL was injected s.c. into the right rear footpad.
For enteral administration of compound, oMePUPA-V (Lot #2770-029) was formulated in a vehicle of 60% PEG 400 in 0.02M TRIS to a stock concentration of 5 mg/mL. […]
Swelling of unchallenged control (left) and challenged (right) rear footpads was measured using a tension caliper from Mitutoyo (Model #304-196, Dyer, Lancaster, Pa.) at 20 hours post-footpad challenge. The data are presented as the change in footpad thickness, determined by subtracting the left hind paw thickness from the right hind paw thickness. […]

α4β1 = molecular target: T2, α4β1 (Homo sapiens, UniProt P05556+P13612); assay: LIBS induction on Jurkat cells with antibody 9EG7 (FACS); assay type: cell-based; details: 2 mM Mg+2 buffer, read-out: EC50 of LIBS epitope induction
T2 construct: endogenous in cells; host or cells: Jurkat (human T cell line)
T2 sequence (P13612 34-1032): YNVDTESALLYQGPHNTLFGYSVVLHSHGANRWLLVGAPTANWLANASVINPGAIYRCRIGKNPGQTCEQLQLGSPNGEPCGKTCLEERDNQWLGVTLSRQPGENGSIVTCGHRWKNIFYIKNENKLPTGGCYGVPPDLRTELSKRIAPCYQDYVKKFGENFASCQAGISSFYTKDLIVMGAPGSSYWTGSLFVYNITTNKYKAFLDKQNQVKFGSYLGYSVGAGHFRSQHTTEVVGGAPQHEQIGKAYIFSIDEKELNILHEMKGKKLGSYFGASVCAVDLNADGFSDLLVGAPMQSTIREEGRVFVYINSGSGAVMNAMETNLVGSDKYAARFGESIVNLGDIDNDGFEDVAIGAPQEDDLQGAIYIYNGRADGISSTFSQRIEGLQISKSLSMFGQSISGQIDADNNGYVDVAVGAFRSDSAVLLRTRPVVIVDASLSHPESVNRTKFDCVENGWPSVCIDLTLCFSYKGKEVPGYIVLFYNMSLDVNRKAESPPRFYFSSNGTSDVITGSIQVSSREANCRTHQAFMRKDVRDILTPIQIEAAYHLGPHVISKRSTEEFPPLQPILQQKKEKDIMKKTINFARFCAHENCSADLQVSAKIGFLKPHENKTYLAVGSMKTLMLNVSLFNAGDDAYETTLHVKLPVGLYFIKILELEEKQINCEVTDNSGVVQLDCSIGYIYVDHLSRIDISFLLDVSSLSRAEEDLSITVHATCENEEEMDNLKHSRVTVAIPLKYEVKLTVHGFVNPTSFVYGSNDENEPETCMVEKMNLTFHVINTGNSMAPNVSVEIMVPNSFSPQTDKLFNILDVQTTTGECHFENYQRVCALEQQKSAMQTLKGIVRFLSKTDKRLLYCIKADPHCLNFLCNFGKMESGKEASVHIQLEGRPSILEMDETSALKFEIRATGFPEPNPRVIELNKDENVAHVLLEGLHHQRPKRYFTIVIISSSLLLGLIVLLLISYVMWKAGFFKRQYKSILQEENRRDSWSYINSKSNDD
T2 sequence (P05556 21-798): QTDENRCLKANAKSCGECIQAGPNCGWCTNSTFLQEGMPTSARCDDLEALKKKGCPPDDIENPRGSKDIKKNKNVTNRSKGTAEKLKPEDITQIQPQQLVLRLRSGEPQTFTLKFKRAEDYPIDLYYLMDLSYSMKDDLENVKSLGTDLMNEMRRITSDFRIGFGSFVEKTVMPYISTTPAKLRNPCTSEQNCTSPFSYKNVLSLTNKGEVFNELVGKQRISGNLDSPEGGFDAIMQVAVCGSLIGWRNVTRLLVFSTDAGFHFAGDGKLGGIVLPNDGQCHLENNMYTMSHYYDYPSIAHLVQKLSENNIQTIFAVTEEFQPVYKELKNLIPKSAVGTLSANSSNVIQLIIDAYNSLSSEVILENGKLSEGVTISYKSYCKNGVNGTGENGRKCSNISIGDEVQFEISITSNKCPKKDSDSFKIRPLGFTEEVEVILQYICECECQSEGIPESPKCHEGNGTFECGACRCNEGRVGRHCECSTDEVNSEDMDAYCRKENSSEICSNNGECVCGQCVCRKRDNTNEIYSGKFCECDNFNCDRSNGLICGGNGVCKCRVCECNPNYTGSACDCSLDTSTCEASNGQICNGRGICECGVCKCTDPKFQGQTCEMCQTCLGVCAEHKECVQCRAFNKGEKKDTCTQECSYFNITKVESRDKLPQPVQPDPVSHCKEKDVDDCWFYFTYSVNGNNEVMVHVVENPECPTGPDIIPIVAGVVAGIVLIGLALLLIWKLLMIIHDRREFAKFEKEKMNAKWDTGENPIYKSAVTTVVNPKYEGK
Protocol: Jurkat cells (2×10^5/well) were preincubated at 37° C. for 20 minutes with TRIS-buffered saline containing 2 mM MgCl2 (Mg^+2-TBS) alone or with serial dilutions of test compounds. The samples were transferred to an ice bath and supplemented with LIBS antibody, 9EG7, at a final concentration of 10 μg/ml. The cells were washed twice with Mg^+2-TBS and resuspended in a 1:200 dilution of a FITC conjugated-goat anti-rat IgG in Mg^+2-TBS and incubated for 30 min at 4° C. The cells were washed twice and resuspended in Mg^+2-TBS. Mean fluorescence intensity (MFI) was determined by FACS analysis (Becton Dickinson FACScan). Results are expressed as MFI. Data were analyzed by Microsoft Excel v5.0 and Deltagraph v4.0 software.

T1 sequence (P08648 42-894 limits assumed): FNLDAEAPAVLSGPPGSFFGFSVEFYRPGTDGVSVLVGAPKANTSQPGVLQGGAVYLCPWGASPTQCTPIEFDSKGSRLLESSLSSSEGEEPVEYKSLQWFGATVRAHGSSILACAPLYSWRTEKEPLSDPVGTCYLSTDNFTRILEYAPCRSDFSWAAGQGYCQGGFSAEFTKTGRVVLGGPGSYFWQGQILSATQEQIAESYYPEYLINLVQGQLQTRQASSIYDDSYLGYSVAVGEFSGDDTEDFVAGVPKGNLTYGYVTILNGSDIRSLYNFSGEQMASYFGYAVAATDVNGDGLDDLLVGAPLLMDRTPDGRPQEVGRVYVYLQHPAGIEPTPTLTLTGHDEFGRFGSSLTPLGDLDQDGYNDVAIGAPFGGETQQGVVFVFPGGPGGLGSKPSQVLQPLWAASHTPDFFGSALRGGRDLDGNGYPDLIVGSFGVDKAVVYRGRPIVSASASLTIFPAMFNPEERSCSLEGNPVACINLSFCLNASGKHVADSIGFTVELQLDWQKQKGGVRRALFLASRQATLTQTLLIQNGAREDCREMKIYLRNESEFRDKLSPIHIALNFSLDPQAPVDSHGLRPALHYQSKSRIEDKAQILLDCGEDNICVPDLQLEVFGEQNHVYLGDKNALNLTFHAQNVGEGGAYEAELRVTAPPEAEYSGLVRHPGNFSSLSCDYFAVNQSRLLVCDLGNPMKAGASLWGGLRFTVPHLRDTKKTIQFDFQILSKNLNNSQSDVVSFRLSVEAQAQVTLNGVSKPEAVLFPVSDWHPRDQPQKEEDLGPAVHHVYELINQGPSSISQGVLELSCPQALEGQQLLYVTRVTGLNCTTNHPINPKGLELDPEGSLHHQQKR
T1 sequence (P08648 895-1049 partner limits assumed): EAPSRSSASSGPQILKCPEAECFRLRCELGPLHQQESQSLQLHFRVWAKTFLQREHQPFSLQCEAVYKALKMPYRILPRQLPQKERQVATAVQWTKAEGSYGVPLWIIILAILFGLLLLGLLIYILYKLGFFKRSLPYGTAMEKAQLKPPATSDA
T1 sequence (P05556 21-798): as the sequence (P05556 21-798) above

Question: Which “measurable activity against VLA-5” value (VLA-5) does the source give for Cc1ccccc1NC(=O)Nc1ccc(CC(=O)N2CCC[C@H]2C(=O)N[C@H](C)CC(=O)O)cc1 [oMePUPA-V] here?
Answer: > 100 µM

Question: And the “inhibition, K562 (VLA-5) Fn-120 adhesion” value (VLA-5; @ 100 μM, Mn+2, 100 µM)?
Answer: no inhibition; also recorded: no inhibition @

Question: And the IC50 (VLA-5; read-out: IC50 against α5β1-FN adhesion)?
Answer: > 100 µM

Question: What about the “effect on footpad swelling (in words)” value [1] of the same compound?
Answer: without effect

Question: And the EC50 (α4β1)?
Answer: ~0.02 µM
